# Test results as given in publication PMC3639963, “A New Class of Small Molecule Inhibitor of BMP Signaling” (PLoS ONE, 2013).
# Assays:
# Assay in all cases: Nanosyn kinase profiling
# Type in all cases: biochemical
# Conditions in all cases: read-out: Percentage inhibition; for inhibition at 0.1 µM: 0.1 µM inhibitor; for inhibition at 1 µM: 1 µM inhibitor
# [1] = target: T1, EPHB4 (Homo sapiens, UniProt P54760)
# T1 construct: purchased Nanosyn (enzymatic panel); SGC in-house recombinant human kinases (DSF panel); Invitrogen (ALK1-6)
# T1 sequence (P54760 16-987): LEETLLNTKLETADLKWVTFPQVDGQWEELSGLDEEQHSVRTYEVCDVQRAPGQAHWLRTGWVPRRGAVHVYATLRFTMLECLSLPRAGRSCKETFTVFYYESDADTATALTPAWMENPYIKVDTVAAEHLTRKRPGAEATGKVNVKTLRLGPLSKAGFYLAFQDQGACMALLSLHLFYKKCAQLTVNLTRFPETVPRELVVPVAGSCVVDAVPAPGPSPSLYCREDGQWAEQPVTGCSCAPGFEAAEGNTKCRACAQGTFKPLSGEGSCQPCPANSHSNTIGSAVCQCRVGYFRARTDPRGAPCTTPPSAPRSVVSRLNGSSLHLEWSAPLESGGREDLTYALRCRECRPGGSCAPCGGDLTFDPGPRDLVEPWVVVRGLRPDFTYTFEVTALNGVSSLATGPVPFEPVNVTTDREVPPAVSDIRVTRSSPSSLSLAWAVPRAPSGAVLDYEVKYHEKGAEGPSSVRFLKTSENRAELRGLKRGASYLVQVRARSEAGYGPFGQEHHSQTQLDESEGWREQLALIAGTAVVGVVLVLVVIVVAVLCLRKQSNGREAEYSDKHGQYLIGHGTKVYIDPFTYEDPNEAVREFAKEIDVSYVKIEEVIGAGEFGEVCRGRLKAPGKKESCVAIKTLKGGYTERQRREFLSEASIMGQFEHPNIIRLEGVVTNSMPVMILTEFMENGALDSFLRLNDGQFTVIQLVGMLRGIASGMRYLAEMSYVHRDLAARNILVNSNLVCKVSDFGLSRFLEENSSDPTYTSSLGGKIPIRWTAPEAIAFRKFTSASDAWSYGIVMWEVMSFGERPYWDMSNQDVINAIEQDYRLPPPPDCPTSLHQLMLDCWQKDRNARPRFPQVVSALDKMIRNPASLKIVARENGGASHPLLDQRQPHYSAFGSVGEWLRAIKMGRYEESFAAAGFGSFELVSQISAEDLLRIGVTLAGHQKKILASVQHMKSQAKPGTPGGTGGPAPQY
# Method in brief: (§1)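 Percent inhibition of each kinase was measured with the inhibitor at 0.1 µM and at 1 µM, as part of a 200-kinase human selectivity panel.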
# [2] = target: T2, AXL (Homo sapiens, UniProt P30530)
# T2 construct: purchased Nanosyn (enzymatic panel); SGC in-house recombinant human kinases (DSF panel); Invitrogen (ALK1-6)
# T2 sequence (P30530 26-894): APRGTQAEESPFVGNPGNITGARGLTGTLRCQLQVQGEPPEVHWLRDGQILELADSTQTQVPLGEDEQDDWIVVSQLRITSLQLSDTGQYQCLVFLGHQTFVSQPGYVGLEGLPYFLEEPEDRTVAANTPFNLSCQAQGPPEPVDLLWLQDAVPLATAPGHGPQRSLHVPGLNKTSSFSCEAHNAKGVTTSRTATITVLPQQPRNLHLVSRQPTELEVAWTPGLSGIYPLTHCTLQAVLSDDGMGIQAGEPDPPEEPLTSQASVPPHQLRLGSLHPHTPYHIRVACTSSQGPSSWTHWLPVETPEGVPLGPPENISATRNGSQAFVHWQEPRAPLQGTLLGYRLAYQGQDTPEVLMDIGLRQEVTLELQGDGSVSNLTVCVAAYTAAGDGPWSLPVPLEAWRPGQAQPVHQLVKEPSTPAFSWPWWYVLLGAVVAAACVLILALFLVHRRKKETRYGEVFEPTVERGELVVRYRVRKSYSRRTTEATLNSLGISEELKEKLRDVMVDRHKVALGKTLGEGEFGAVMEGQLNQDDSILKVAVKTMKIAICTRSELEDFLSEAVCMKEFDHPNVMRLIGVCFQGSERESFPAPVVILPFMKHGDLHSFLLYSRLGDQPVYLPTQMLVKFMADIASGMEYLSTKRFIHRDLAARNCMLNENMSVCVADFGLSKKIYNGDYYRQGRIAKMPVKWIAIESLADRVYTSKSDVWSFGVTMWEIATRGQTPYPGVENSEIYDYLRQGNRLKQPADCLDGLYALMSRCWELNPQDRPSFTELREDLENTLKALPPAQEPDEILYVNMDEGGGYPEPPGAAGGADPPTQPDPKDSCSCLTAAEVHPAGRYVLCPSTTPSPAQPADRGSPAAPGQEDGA
# Method in brief: as §1
# [3] = target: T3, TRKA (Homo sapiens, UniProt P04629)
# T3 construct: purchased Nanosyn (enzymatic panel); SGC in-house recombinant human kinases (DSF panel); Invitrogen (ALK1-6)
# T3 sequence (P04629 33-796): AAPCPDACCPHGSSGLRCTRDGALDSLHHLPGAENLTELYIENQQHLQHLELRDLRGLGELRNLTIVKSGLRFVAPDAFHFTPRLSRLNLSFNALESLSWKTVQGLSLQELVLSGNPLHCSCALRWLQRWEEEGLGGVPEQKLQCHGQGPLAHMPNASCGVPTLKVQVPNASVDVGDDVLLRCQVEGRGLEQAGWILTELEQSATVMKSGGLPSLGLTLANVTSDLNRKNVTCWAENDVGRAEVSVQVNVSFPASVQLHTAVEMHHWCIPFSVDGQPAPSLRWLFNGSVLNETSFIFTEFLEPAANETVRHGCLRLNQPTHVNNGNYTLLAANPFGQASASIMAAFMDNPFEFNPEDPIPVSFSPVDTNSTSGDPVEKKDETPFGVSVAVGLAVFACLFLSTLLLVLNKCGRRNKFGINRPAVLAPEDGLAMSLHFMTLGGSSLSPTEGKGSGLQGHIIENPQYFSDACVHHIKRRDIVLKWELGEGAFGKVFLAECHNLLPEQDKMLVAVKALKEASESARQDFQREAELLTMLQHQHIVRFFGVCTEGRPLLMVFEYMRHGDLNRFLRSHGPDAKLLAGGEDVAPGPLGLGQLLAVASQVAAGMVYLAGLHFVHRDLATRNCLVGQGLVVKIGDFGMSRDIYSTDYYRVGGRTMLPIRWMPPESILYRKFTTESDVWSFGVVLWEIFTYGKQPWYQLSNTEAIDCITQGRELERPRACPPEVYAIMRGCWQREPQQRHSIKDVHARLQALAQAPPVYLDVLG
# Method in brief: as §1
# [4] = target: T4, ROCK1 (Homo sapiens, UniProt Q13464)
# T4 construct: purchased Nanosyn (enzymatic panel); SGC in-house recombinant human kinases (DSF panel); Invitrogen (ALK1-6)
# T4 sequence (Q13464 whole entry): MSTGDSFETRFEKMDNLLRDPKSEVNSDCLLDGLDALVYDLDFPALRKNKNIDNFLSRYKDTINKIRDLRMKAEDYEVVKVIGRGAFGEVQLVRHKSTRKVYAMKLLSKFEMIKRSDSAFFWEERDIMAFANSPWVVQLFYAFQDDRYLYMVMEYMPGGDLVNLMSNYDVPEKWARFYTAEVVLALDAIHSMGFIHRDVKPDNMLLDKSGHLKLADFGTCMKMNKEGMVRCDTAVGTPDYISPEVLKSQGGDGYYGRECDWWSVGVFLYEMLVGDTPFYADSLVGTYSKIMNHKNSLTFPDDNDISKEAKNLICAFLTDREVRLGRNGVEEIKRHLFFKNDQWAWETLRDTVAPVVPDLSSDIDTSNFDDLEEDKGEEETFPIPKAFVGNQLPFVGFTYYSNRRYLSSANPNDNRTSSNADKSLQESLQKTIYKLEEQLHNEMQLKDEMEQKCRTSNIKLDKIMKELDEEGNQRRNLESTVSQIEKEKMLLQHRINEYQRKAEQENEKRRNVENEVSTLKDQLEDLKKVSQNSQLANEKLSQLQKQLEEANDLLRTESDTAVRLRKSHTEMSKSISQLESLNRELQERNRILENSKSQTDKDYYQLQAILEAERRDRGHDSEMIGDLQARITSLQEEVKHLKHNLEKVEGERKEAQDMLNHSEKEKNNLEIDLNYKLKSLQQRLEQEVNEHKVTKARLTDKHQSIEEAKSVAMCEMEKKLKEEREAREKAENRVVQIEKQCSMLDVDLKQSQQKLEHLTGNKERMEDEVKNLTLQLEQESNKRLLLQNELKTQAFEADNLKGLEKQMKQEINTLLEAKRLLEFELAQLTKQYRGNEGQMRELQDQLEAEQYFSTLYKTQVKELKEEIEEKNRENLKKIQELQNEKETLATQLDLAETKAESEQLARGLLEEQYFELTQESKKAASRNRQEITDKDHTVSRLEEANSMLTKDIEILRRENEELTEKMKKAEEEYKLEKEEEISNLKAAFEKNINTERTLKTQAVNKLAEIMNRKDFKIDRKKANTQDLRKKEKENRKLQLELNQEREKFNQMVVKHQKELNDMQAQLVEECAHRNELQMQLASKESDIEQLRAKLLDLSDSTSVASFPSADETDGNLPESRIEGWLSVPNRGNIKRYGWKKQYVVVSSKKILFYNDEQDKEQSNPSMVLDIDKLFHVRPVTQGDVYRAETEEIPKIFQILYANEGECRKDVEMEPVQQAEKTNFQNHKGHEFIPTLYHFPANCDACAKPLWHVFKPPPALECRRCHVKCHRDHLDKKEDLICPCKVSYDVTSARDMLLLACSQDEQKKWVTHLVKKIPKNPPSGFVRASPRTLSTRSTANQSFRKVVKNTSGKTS
# Method in brief: as §1
SMILES,inhibition at 0.1 µM [1] [%],inhibition at 1 µM [1] [%],inhibition at 0.1 µM [2] [%],inhibition at 1 µM [2] [%],inhibition at 0.1 µM [3] [%],inhibition at 1 µM [3] [%],inhibition at 0.1 µM [4] [%],inhibition at 1 µM [4] [%]
"COc1cc(-c2cc(-c3cccc(O)c3)cnc2N)cc(OC)c1OC [K02288, 3-[6-amino-5-(3,4,5-trimethoxy-phenyl)-pyridin-3-yl]-phenol]",0,5.9,0.9,1.5,1.5,2.8,0.5,3.1
c1ccc2c(-c3cnn4cc(-c5ccc(N6CCNCC6)cc5)cnc34)ccnc2c1 [LDN-193189],-1,6.6,-4,1.1,1.9,7.2,0,0.7
